Patent US20230174939A1, “NOVEL ANUCLEATED CELLS AS A SOURCE FOR TREATMENT OF PLATELET RICH PLASMA DEPENDENT DISORDERS” (Stellular Bio, Inc., priority 2020, published 2023)

Assay: Body weight of rats on treatment in MIA osteoarthritis study
Format: in vivo, Sprague Dawley rats
Conditions: oral, positive control; treatment stopped early in the study
Description: Groups of 20 male Sprague Dawley rats were given a 2 mg intra-articular injection of MIA into the right knee on day 0. On day 18, rats were treated with a single dose of plasmalyte buffer (negative control), PLCs, PLC lysate, or human PRP by intra-articular injection into the right knee.

C[C@@H]1C[C@H]2[C@@H]3CCC4=CC(=O)C=C[C@]4(C)[C@@]3(F)[C@@H](O)C[C@]2(C)[C@@]1(O)C(=O)CO [dexamethasone]
body weight on treatment: began to lose weight
